Data from PubChem BioAssay (NCI).
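Exposure lasted 48 hours, with cells grown in 96-well plates and compounds tested at five concentrations. TGI: total growth inhibition.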

Experiments:
Assay in all cases: NCI tumour cell line growth inhibition, 48 h
T-47D breast = test system: T-47D breast
SF-539 CNS = test system: SF-539 CNS
SF-295 CNS = test system: SF-295 CNS
SW-620 colon = test system: SW-620 colon
HCT-15 colon = test system: HCT-15 colon
MOLT-4 leukemia = test system: MOLT-4 leukemia
MDA-MB-231 breast = test system: MDA-MB-231 breast
LOX IMVI melanoma = test system: LOX IMVI melanoma
KM12 colon = test system: KM12 colon
MALME-3M melanoma = test system: MALME-3M melanoma
UACC-62 melanoma = test system: UACC-62 melanoma
DU-145 prostate = test system: DU-145 prostate
SF-268 CNS = test system: SF-268 CNS
786-0 renal = test system: 786-0 renal
HT29 colon = test system: HT29 colon
OVCAR-8 ovarian = test system: OVCAR-8 ovarian
TK-10 renal = test system: TK-10 renal
A549 NSCLC = test system: A549 NSCLC
ACHN renal = test system: ACHN renal
NCI-H460 lung = test system: NCI-H460 lung
MDA-N = test system: MDA-N
OVCAR-5 ovarian = test system: OVCAR-5 ovarian
HCT-116 colon = test system: HCT-116 colon
IGROV1 ovarian = test system: IGROV1 ovarian
CAKI-1 renal = test system: CAKI-1 renal
BT-549 breast = test system: BT-549 breast
U251 CNS = test system: U251 CNS
PC-3 prostate = test system: PC-3 prostate
HS 578T breast = test system: HS 578T breast
OVCAR-4 ovarian = test system: OVCAR-4 ovarian
SK-MEL-5 melanoma = test system: SK-MEL-5 melanoma
COLO 205 colon = test system: COLO 205 colon
SK-MEL-2 melanoma = test system: SK-MEL-2 melanoma
NCI-H226 lung = test system: NCI-H226 lung
SK-MEL-28 melanoma = test system: SK-MEL-28 melanoma
UACC-257 melanoma = test system: UACC-257 melanoma
CCRF-CEM leukemia = test system: CCRF-CEM leukemia
MCF7 breast = test system: MCF7 breast
HOP-92 NSCLC = test system: HOP-92 NSCLC
NCI-H522 lung = test system: NCI-H522 lung
SNB-75 CNS = test system: SNB-75 CNS
K-562 leukemia = test system: K-562 leukemia
MDA-MB-435 = test system: MDA-MB-435
M14 melanoma = test system: M14 melanoma
OVCAR-3 ovarian = test system: OVCAR-3 ovarian
SK-OV-3 ovarian = test system: SK-OV-3 ovarian
HOP-62 NSCLC = test system: HOP-62 NSCLC
A498 renal = test system: A498 renal
SR leukemia = test system: SR leukemia
UO-31 renal = test system: UO-31 renal
HL-60(TB) leukemia = test system: HL-60(TB) leukemia
SN12C renal = test system: SN12C renal
RPMI-8226 leukemia = test system: RPMI-8226 leukemia
NCI/ADR-RES ovarian = test system: NCI/ADR-RES ovarian
RXF 393 renal = test system: RXF 393 renal
NCI-H23 lung = test system: NCI-H23 lung
SNB-19 CNS = test system: SNB-19 CNS
EKVX NSCLC = test system: EKVX NSCLC

`Cc1nc2cc([N+](=O)[O-])ccc2c(NCCCN(C)C)c1C` was tested, and the TGI (T-47D breast) was 29 µM, the TGI (SF-539 CNS) was 30 µM and the TGI (SF-295 CNS) was 48.4 µM. It also gave a TGI (SW-620 colon) of 24.7 µM, a TGI (HCT-15 colon) of 31.3 µM and a TGI (MOLT-4 leukemia) of 29.4 µM. It also gave a TGI (MDA-MB-231 breast) of 14.2 µM, a TGI (LOX IMVI melanoma) of 36 µM and a TGI (KM12 colon) of 26.6 µM. The TGI (MALME-3M melanoma) was 18.9 µM, the TGI (UACC-62 melanoma) was 33.9 µM and the TGI (DU-145 prostate) was 68.9 µM. For the same molecule, the TGI (SF-268 CNS) was greater than 100 µM, the TGI (786-0 renal) was 30.9 µM and the TGI (HT29 colon) was 10.9 µM. For the same molecule, the TGI (OVCAR-8 ovarian) was 35.1 µM, the TGI (TK-10 renal) was 67 µM and the TGI (A549 NSCLC) was 32.2 µM. It also gave a TGI (ACHN renal) of 76.7 µM, a TGI (NCI-H460 lung) of 13.5 µM and a TGI (MDA-N) of 28.2 µM. The TGI (OVCAR-5 ovarian) was 38.3 µM, the TGI (HCT-116 colon) was 22.4 µM and the TGI (IGROV1 ovarian) was 11.9 µM. The TGI (CAKI-1 renal) was 55.6 µM, the TGI (BT-549 breast) was 26.1 µM and the TGI (U251 CNS) was 63.5 µM. The TGI (PC-3 prostate) was 24.3 µM, the TGI (HS 578T breast) was 75.7 µM and the TGI (OVCAR-4 ovarian) was 11.1 µM. It also gave a TGI (SK-MEL-5 melanoma) of 21.7 µM, a TGI (COLO 205 colon) of 8.55 µM and a TGI (SK-MEL-2 melanoma) of 22.7 µM. It also gave a TGI (NCI-H226 lung) of 25.9 µM, a TGI (SK-MEL-28 melanoma) greater than 100 µM and a TGI (UACC-257 melanoma) of 18.6 µM. The TGI (CCRF-CEM leukemia) was greater than 100 µM, the TGI (MCF7 breast) was 11 µM and the TGI (HOP-92 NSCLC) was 8.09 µM. It also gave a TGI (NCI-H522 lung) of 10.7 µM, a TGI (SNB-75 CNS) greater than 100 µM and a TGI (K-562 leukemia) greater than 100 µM. It also gave a TGI (MDA-MB-435) of 31.1 µM, a TGI (M14 melanoma) of 26.7 µM and a TGI (OVCAR-3 ovarian) of 33.7 µM. For the same molecule, the TGI (SK-OV-3 ovarian) was greater than 100 µM, the TGI (HOP-62 NSCLC) was 28.2 µM and the TGI (A498 renal) was 30.5 µM. The TGI (SR leukemia) was greater than 100 µM, the TGI (UO-31 renal) was 32.1 µM and the TGI (HL-60(TB) leukemia) was greater than 100 µM. The TGI (SN12C renal) was 34.5 µM, the TGI (RPMI-8226 leukemia) was greater than 100 µM and the TGI (NCI/ADR-RES ovarian) was 39.9 µM. The TGI (RXF 393 renal) was 27.6 µM and the TGI (NCI-H23 lung) was 15.4 µM.
For `COc1cc(C=O)cc(/C=N/N=C/c2ccccc2O)c1O`, the TGI (T-47D breast) was 28.2 µM, the TGI (SF-539 CNS) was 34.2 µM and the TGI (SF-295 CNS) was 8.16 µM. For the same molecule, the TGI (SW-620 colon) was greater than 100 µM, the TGI (HCT-15 colon) was greater than 100 µM and the TGI (MOLT-4 leukemia) was 2.05 µM. It also gave a TGI (MDA-MB-231 breast) of 76.4 µM, a TGI (LOX IMVI melanoma) of 54.5 µM and a TGI (KM12 colon) greater than 100 µM. The TGI (MALME-3M melanoma) was 18.1 µM, the TGI (UACC-62 melanoma) was greater than 100 µM and the TGI (DU-145 prostate) was greater than 100 µM. The TGI (SF-268 CNS) was greater than 100 µM, the TGI (786-0 renal) was 50.6 µM and the TGI (HT29 colon) was greater than 100 µM. The TGI (TK-10 renal) was greater than 100 µM, the TGI (A549 NSCLC) was greater than 100 µM and the TGI (ACHN renal) was 67.4 µM. For the same molecule, the TGI (NCI-H460 lung) was greater than 100 µM, the TGI (MDA-N) was greater than 100 µM and the TGI (HCT-116 colon) was 67.3 µM. For the same molecule, the TGI (IGROV1 ovarian) was greater than 100 µM, the TGI (CAKI-1 renal) was 49 µM and the TGI (BT-549 breast) was 52.6 µM. The TGI (U251 CNS) was greater than 100 µM, the TGI (PC-3 prostate) was 85.9 µM and the TGI (HS 578T breast) was 10.3 µM. It also gave a TGI (OVCAR-4 ovarian) greater than 100 µM, a TGI (SK-MEL-5 melanoma) greater than 100 µM and a TGI (COLO 205 colon) of 82.9 µM. The TGI (SK-MEL-2 melanoma) was 47 µM, the TGI (NCI-H226 lung) was 58.6 µM and the TGI (SK-MEL-28 melanoma) was 73.8 µM. For the same molecule, the TGI (UACC-257 melanoma) was greater than 100 µM, the TGI (CCRF-CEM leukemia) was 70.3 µM and the TGI (MCF7 breast) was greater than 100 µM. The TGI (HOP-92 NSCLC) was 39.8 µM, the TGI (NCI-H522 lung) was greater than 100 µM and the TGI (MDA-MB-435) was greater than 100 µM. The TGI (M14 melanoma) was 56.8 µM, the TGI (OVCAR-3 ovarian) was 65.9 µM and the TGI (SK-OV-3 ovarian) was 59.7 µM. It also gave a TGI (HOP-62 NSCLC) greater than 100 µM, a TGI (A498 renal) greater than 100 µM and a TGI (SR leukemia) of 51.2 µM. For the same molecule, the TGI (UO-31 renal) was 99.1 µM, the TGI (HL-60(TB) leukemia) was 0.0201 µM and the TGI (SNB-19 CNS) was greater than 100 µM. For the same molecule, the TGI (SN12C renal) was 64.4 µM, the TGI (RPMI-8226 leukemia) was 45.3 µM and the TGI (NCI/ADR-RES ovarian) was greater than 100 µM. For the same molecule, the TGI (RXF 393 renal) was greater than 100 µM and the TGI (NCI-H23 lung) was 54 µM.
With `O=C(NCCc1[nH]nc2c1C(=O)C=C(Nc1ccccc1)C2=O)OCc1ccccc1` the TGI (T-47D breast) was greater than 100 µM, the TGI (SF-539 CNS) was greater than 100 µM and the TGI (SF-295 CNS) was greater than 100 µM. For the same molecule, the TGI (SW-620 colon) was greater than 100 µM, the TGI (HCT-15 colon) was greater than 100 µM and the TGI (MOLT-4 leukemia) was greater than 100 µM. The TGI (MDA-MB-231 breast) was greater than 100 µM, the TGI (LOX IMVI melanoma) was greater than 100 µM and the TGI (KM12 colon) was greater than 100 µM. It also gave a TGI (UACC-62 melanoma) greater than 100 µM, a TGI (DU-145 prostate) greater than 100 µM and a TGI (SF-268 CNS) greater than 100 µM. The TGI (786-0 renal) was greater than 100 µM, the TGI (HT29 colon) was greater than 100 µM and the TGI (OVCAR-8 ovarian) was greater than 100 µM. The TGI (TK-10 renal) was greater than 100 µM, the TGI (A549 NSCLC) was greater than 100 µM and the TGI (ACHN renal) was greater than 100 µM. The TGI (NCI-H460 lung) was greater than 100 µM, the TGI (MDA-N) was greater than 100 µM and the TGI (OVCAR-5 ovarian) was greater than 100 µM. The TGI (HCT-116 colon) was greater than 100 µM, the TGI (IGROV1 ovarian) was greater than 100 µM and the TGI (CAKI-1 renal) was greater than 100 µM. For the same molecule, the TGI (BT-549 breast) was greater than 100 µM, the TGI (U251 CNS) was greater than 100 µM and the TGI (PC-3 prostate) was greater than 100 µM. For the same molecule, the TGI (HS 578T breast) was greater than 100 µM, the TGI (OVCAR-4 ovarian) was greater than 100 µM and the TGI (SK-MEL-5 melanoma) was greater than 100 µM. For the same molecule, the TGI (COLO 205 colon) was greater than 100 µM, the TGI (SK-MEL-2 melanoma) was greater than 100 µM and the TGI (NCI-H226 lung) was greater than 100 µM. It also gave a TGI (UACC-257 melanoma) greater than 100 µM, a TGI (CCRF-CEM leukemia) greater than 100 µM and a TGI (MCF7 breast) greater than 100 µM. For the same molecule, the TGI (HOP-92 NSCLC) was greater than 100 µM, the TGI (NCI-H522 lung) was greater than 100 µM and the TGI (SNB-75 CNS) was greater than 100 µM. It also gave a TGI (MDA-MB-435) greater than 100 µM, a TGI (M14 melanoma) greater than 100 µM and a TGI (OVCAR-3 ovarian) greater than 100 µM. It also gave a TGI (SK-OV-3 ovarian) greater than 100 µM, a TGI (A498 renal) greater than 100 µM and a TGI (SR leukemia) greater than 100 µM. For the same molecule, the TGI (EKVX NSCLC) was greater than 100 µM, the TGI (UO-31 renal) was greater than 100 µM and the TGI (HL-60(TB) leukemia) was greater than 100 µM. It also gave a TGI (SNB-19 CNS) greater than 100 µM, a TGI (SN12C renal) greater than 100 µM and a TGI (RPMI-8226 leukemia) greater than 100 µM. For the same molecule, the TGI (NCI/ADR-RES ovarian) was greater than 100 µM, the TGI (RXF 393 renal) was greater than 100 µM and the TGI (NCI-H23 lung) was greater than 100 µM.
